Assay results: EP0326134A1, “4-Amino-2,3-disubstituted-6,7-dihydro-5H-1-pyridine derivatives, process for their preparation and medicaments containing them” (NAUCHNO-ISSLEDOVATELSKY INSTITUT TEKHNOLOGII I BEZOPASNOSTI …, priority 1988, dated 1989)
Where two headings read alike, the source gives them in different places.

How the values were obtained:
[1] = system: Samenleiter der Ratte; experiment: Contractile activity of smooth muscle: rat vas deferens; conditions: Rattus norvegicus, Samenleiter der Ratte; Konzentration 1.10^-5 Mol; n = 9; read-out: Adrenalin 1.10^-6: Amplitude, % bezogen auf d.Kontrolle
Description: (§1) In Versuchen an glattmpskulären Organen (Uterus, Samenleiter der Ratte und Krummdarm des Meerschweinchens) wurden die Wirkung der erfindungsgemäßen Verbindungen auf die kontraktile Aktivität der glatten Muskeln und ihre Reaktionen auf den Einfluß von Acetylcholin, Serotonin, Adrenalin und KCI als Agonisten untersucht. Mit Hilfe eines Schreibers wurden die Amplitude und die Dauer der Kontraktion der glatten Muskeln unter Verwendung eines Geräts vom Typ Mechanstron-untersucht.

[2] = system: Nerven-Muskel-Präparat von Mäusen (n.peroneus-m.extensor digitorum longus); experiment: Neuromuscular transmission in isolated nerve-muscle preparation (EPP, minEPP)
Outline: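 Mouse peroneal nerve–extensor digitorum longus preparation, isolated and perfused with O2/CO2-gassed Lilly solution. EPPs and spontaneous minEPPs were recorded by magnetograph, then analysed by computer for frequency, amplitude and duration.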

[3] = system: K -Durchlässigkeit der Membrane des Ranvier-Schnürringes; experiment: K+ permeability of the node of Ranvier membrane, voltage clamp; parameters: species or system Frosches; conditions: node of Ranvier, frog sciatic nerve fibres, voltage clamp; concentration giving 50 % block of ion permeability; read-out: Blockierung der K^+-Durchlässigkeit der Membrane Ic50 (Mol)
Description: (§2) Untersucht wurden die Wirkmechanismen der erfindungsgemäßen Verbindungen: • 1. Die Wirkung auf Acetylcholinesterase menschlicher Erythrozyten auf spektrofotometrischem Wege. • 2. Die Wirkung auf die K - und Na -Durchlässigkeit der Membrane des Ranvier-Schnürringes (s. Fox T.M. et al. "Modification of ionic membrane currrents of Ranvier nodes by UV-radiation under voltage clamp conditions", Experientia, 27, 1289-1290 /1971/ und Arhom P. et al. "Local anesthetics: effects on permeability properties of nodal membrane in myelynated nerve fibres from xenopus". Acta physiol. Scand. 91, 11-21 /1974/) der Nervenfasern des Hüftnervs des Frosches unter Anwendung der Methode der Messung der Membranspannung (Voltage-clampmethode) (s. Derksen H.E. "Axon membrane voltage fluctuations", Acta Physiol., Pharmacol Neer, 13, 373-466 /1965/).
(§3) Alle erfindungsgemäßen Verbindungen sind Blocker für die K^+-Durchlässigkeit der Membrane analog dem Amyridin. Die Salze der bicyclischen Basen blockieren jedoch stärker die Na -Durchlässigkeit der Membrane, was sich mit ihren sedativen und analgetischen Eigenschaften in Verbindung bringen läßt.

[4] = biological target: T1, Acetylcholinesterase menschlicher Erythrozyten (Homo sapiens, UniProt P22303); experiment: Acetylcholinesterase inhibition, spectrophotometric; format: biochemical; conditions: Acetylcholinesteraseinhibierung bei menschlichen Erythrozyten IK, (Mol), human erythrocyte enzyme
T1 construct: Acetylcholin-esteraseinhi-bierung bei menschlichen Erythrozyten; from tissue; host or cells: human erythrocytes
Description: Untersucht wurden die Wirkmechanismen der erfindungsgemäßen Verbindungen: • 1. Die Wirkung auf Acetylcholinesterase menschlicher Erythrozyten auf spektrofotometrischem Wege. • 2.

[5] = system: Na -Durchlässigkeit der Membrane des Ranvier-Schnürringes; experiment: Na+ permeability of the node of Ranvier membrane, voltage clamp; parameters: species or system Frosches; conditions: node of Ranvier, frog sciatic nerve fibres, voltage clamp; concentration giving 50 % block of ion permeability; read-out: Blockierung der Na^+-Durchlässigkeit der Membrane Ic50 (Mol)
Description: as §2, §3

[6] = system: Uterus der Ratte; experiment: Contractile activity of smooth muscle: rat uterus; conditions: Konzentration 1.10^-5 Mol, n = 9; for activity at 10 µM: Rattus norvegicus
Description: as §1

[7] = Acute toxicity, single intraperitoneal injection, probit analysis (LD50); format: in vivo, Mäusen; conditions: mouse, in vivo, ip, mice, i.p., read-out: LD50
Description: Ihre akute Toxizität wurde an Mäusen (einmalige intraperitoneale Injektion) nach der Methode der Probit-Analyse nach Zichtfield, Wilcoxon, t949 untersucht. In Tabelle 2 sind die Parameter der akuten Toxizität (LDso) angegeben, die eine mäßige Toxizität der erfindungsgemäßen Verbindungen belegen.

[8] = system: durch Skopolamin hervorgerufene Amnesie; experiment: Dark avoidance assay (passive avoidance), scopolamine-induced amnesia; format: in vivo, Mäusen; conditions: mice, compound s.c. 5 min before learning, Skopolamin i.p. 30 min before
[9] = Side effects and CNS/behaviour: tremor (TD50), sedative and m-cholinomimetic effects; format: in vivo; conditions: in vivo
Description: Von Interesse ist der Einfluß der erfindungsgemäßen Verbindungen auf das ZNS und das Verhalten der Tiere.

T1 sequence (P22303 other isoform, or with tags, fused parts or gaps): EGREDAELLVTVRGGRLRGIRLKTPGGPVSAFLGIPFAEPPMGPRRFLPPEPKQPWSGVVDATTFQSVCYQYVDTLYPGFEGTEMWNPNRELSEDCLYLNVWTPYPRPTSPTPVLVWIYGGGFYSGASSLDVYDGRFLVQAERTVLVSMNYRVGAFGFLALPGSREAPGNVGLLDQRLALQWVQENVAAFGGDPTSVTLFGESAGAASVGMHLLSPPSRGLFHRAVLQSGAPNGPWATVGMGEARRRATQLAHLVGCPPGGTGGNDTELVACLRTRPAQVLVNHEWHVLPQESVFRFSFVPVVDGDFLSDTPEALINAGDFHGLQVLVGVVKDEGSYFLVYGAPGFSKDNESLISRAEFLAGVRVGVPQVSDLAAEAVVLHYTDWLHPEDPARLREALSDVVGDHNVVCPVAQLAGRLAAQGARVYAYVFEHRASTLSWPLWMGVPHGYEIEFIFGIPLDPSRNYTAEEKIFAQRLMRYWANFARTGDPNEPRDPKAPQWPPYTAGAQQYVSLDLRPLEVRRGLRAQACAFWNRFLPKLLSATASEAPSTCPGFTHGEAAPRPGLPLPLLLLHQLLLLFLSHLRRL

With Nc1c2c(nc3c1CCC3)CCCCC2 [Verbindung 38] the activity at 10 µM [1] was 145%, the “Stimulierung der Nerven-Muskelübertragung, in % der Amplitude: EPP” value ([2]; EPP = Endplattenpotential) was 28% and the “Stimulierung der Nerven-Muskelübertragung, in % der Amplitude: minEPP” value ([2]; minEPP) was 52%. The IC50 [3] was 580 µM, the Ki [4] was 0.48 µM and the IC50 [5] was 4500 µM. The activity at 10 µM ([6]; Uterus der Ratte (as head prints), ditto mark -"- repeats unverändert, read-out: Acetylcholin 1.10^-6 (Mol): Amplidude, % bezogen auf d. Kontrolle) was 125%, the activity at 10 µM ([6]; Uterus der Ratte, read-out: Serotonin 1.10^-6 (Mol): Amplitude, % bezogen auf die Kontrolle) was 180% and the “Acetylcholin 1.10^-6 (Mol): Dauer, Min.” value ([6]; Uterus der Ratte (as head prints)) was 20±0.6 Min. For the same compound, the “Serotonin 1.10^-6 (Mol): Dauer, Min.” value ([6]; Uterus der Ratte) was 25±0.8 Min, the LD50 [7] was 49 mg/kg and the “Einfluß auf das Gedächtnis: Zahl der Tiere in %, bei denen die Skopolaminwirkung aufgehoben wurde” value [8] was 70%. For the same compound, the selectivity ratio ([9]; ED50 = dose blocking the effect of Skopolamin in 50 % of the animals (passive avoidance, mice), read-out: Verhältnis TD50 zu ED50) was 7.6 and the TD50 ([9]; toxic dose causing tremor in 50 % of the animals) was 17 mg/kg.
